Assays:
Leishmania donovani [1] = assay: Antileishmanial activity against Leishmania donovani 9515 amastigote infected in human THP-1 cells assessed as static activity by measuring inhibition of parasite growth incubated for 72 hrs by resazurin dye based assay; type: functional, organism-based; details: Leishmania donovani, 9515, THP-1, 72 h
Leishmania major [2] = assay: Antileishmanial activity against Leishmania major IR-173 promastigotes assessed as inhibition of parasite growth incubated for 48 hrs by resazurin dye based assay; type: functional, organism-based; details: IR-173, 48 h
Leishmania major [3] = assay: Antileishmanial activity against Leishmania major IR-173 amastigote infected in human THP-1 cells assessed as static activity by measuring inhibition of parasite growth incubated for 72 hrs by resazurin dye based assay; type: functional, organism-based; details: IR-173, THP-1, 72 h
[4] = Selectivity index, ratio of IC50 for antileishmanial activity against Leishmania major IR-173 promastigotes to IC50 for antileishmanial activity against Leishmania major IR-173 amastigote infected in human THP-1 cells assessed as static activity; type: functional
Leishmania major [5] = assay: Leishmanicidal activity against Leishmania major IR-173 amastigote infected in human THP-1 cells incubated for 72 hrs by resazurin dye based analysis; type: functional, organism-based; details: IR-173, THP-1, 72 h
[6] = Selectivity index, ratio of IC50 for cytotoxicity against African green monkey Vero cells to IC50 for leishmanicidal activity against Leishmania major […] amastigote infected in human THP-1 cells; type: toxicity, cell-based; details: read-out: Ratio IC50
[7] = Selectivity index, ratio of IC50 for antileishmanial activity against Leishmania major IR-173 promastigotes to IC50 for leishmanicidal activity against Leishmania major IR-173 amastigote infected in human THP-1 cells; type: functional
Leishmania donovani [8] = assay: Antileishmanial activity against Leishmania donovani 9515 promastigotes assessed as inhibition of parasite growth incubated for 48 hrs by resazurin dye based assay; type: functional, organism-based; details: Leishmania donovani, 9515, 48 h
Leishmania donovani [9] = assay: Leishmanicidal activity against Leishmania donovani 9515 amastigote infected in human THP-1 cells incubated for 72 hrs by resazurin dye based analysis; type: functional, organism-based; details: Leishmania donovani, 9515, THP-1, 72 h
in vitro [10] = details: African green monkey
in vitro [11] = details: monkey, Vero cells
Description: Selectivity index, ratio of IC50 for cytotoxicity against African green monkey Vero cells to IC50 for antileishmanial activity against Leishmania major IR-173 promastigote

in vitro [12] = details: monkey, Vero cells; remark: listed apart in the source
Description: Selectivity index, ratio of IC50 for cytotoxicity against African green monkey Vero cells to IC50 for antileishmanial activity against Leishmania major IR-173 amastigote infected in human THP-1 cells assessed as static activity

in vitro [13] = details: monkey
Description: Selectivity index, ratio of IC50 for cytotoxicity against African green monkey Vero cells to IC50 for leishmanicidal activity against Leishmania donovani 9515 amastigote infected in human THP-1 cells

[14] = Cytotoxicity against HEK293 cells assessed as inhibition of cell growth incubated for 48 hrs by resazurin dye based assay; type: toxicity; details: human
[15] = Selectivity index, ratio of IC50 for cytotoxicity against HEK293 cells to IC50 for antileishmanial activity against Leishmania major IR-173 promastigotes; type: toxicity, cell-based; details: human, read-out: Ratio IC50
in vitro [16] = details: human
[17] = Selectivity index, ratio of IC50 for cytotoxicity against African green monkey Vero cells to IC50 for antileishmanial activity against Leishmania donovani 9515 amastigote infected in human THP-1 cells assessed as static activity; type: toxicity, cell-based; details: read-out: Ratio IC50
[18] = Selectivity index, ratio of IC50 for antileishmanial activity against Leishmania donovani 9515 promastigotes to IC50 for antileishmanial activity against Leishmania donovani 9515 amastigote infected in human THP-1 cells assessed as static activity; type: functional
[19] = Selectivity index, ratio of IC50 for antileishmanial activity against Leishmania donovani 9515 promastigotes to IC50 for leishmanicidal activity against Leishmania donovani 9515 amastigote infected in human THP-1 cells; type: functional
in vitro [20] = details: monkey, Vero cells; remark: listed apart in the source
Description: Selectivity index, ratio of IC50 for cytotoxicity against African green monkey Vero cells to IC50 for antileishmanial activity against Leishmania donovani 9515 promastigotes

Question: For O=Cc1ccc([N+](=O)[O-])o1, which IC50 (Leishmania donovani [1]) is on record?
Answer: 8.56 µM

Question: And the IC50 (Leishmania major [2])?
Answer: 7.28 µM

Question: And the IC50 (Leishmania major [3])?
Answer: 8.35 µM

Question: What about the “Ratio IC50” value [4] of the same molecule?
Answer: 0.87

Question: What about the IC50 (Leishmania major [5]) of the same molecule?
Answer: 5.6 µM

Question: And the selectivity ratio [6]?
Answer: 4

Question: And the “Ratio IC50” value [7]?
Answer: 1.3

Question: And the IC50 (Leishmania donovani [8])?
Answer: > 10 µM

Question: What about the IC50 (Leishmania donovani [9]) of the same molecule?
Answer: 2.68 µM

Question: And the IC50 at 48 h (in vitro [10]; Vero cells)?
Answer: 23.2 µM

Question: What about the selectivity ratio (in vitro [11]) of the same molecule?
Answer: 3

Question: And the selectivity ratio (in vitro [12])?
Answer: 3

Question: And the selectivity ratio (in vitro [13]; Vero cells)?
Answer: 9

Question: For CCCCCc1cn(CCCCCN2C(=O)CN(/N=C/c3ccc([N+](=O)[O-])o3)C2=O)nn1, which IC50 at 48 h [14] is on record?
Answer: 12 µM

Question: And the IC50 (Leishmania donovani [1])?
Answer: > 10 µM

Question: And the IC50 (Leishmania major [2])?
Answer: 1.07 µM

Question: And the selectivity ratio [15]?
Answer: 11

Question: And the IC50 (Leishmania major [3])?
Answer: > 10 µM

Question: And the IC50 (Leishmania major [5])?
Answer: 6.56 µM

Question: What about the selectivity ratio [6] of the same molecule?
Answer: 11

Question: What about the “Ratio IC50” value [7] of the same molecule?
Answer: 0.2

Question: And the IC50 (Leishmania donovani [8])?
Answer: > 10 µM

Question: And the IC50 (Leishmania donovani [9])?
Answer: > 10 µM

Question: And the IC50 at 48 h (in vitro [10]; Vero cells)?
Answer: 72.8 µM

Question: What about the IC50 at 48 h (in vitro [16]; THP-1 cells) of the same molecule?
Answer: 70 µM

Question: What does the source list for COc1ccc(-c2cn(CCCN3C(=O)CN(/N=C/c4ccc([N+](=O)[O-])o4)C3=O)nn2)cc1?
Answer: IC50 at 48 h [14]: 10.8 µM; IC50 (Leishmania donovani [1]): > 10 µM; IC50 (Leishmania major [2]): 0.8 µM; selectivity ratio [15]: 13; IC50 (Leishmania major [3]): > 10 µM; IC50 (Leishmania major [5]): 9.75 µM; selectivity ratio [6]: > 10; Ratio IC50 [7]: 0.1; IC50 (Leishmania donovani [8]): > 10 µM; IC50 (Leishmania donovani [9]): > 10 µM; IC50 at 48 h (in vitro [10]; Vero cells): > 100 µM; IC50 at 48 h (in vitro [16]; THP-1 cells): > 100 µM

Question: Which results are given for CCCCCCc1cn(CCCN2C(=O)CN(/N=C/c3ccc([N+](=O)[O-])o3)C2=O)nn1?
Answer: IC50 at 48 h [14]: 16.5 µM; IC50 (Leishmania donovani [1]): > 10 µM; IC50 (Leishmania major [2]): 0.48 µM; selectivity ratio [15]: 34; IC50 (Leishmania major [3]): 0.84 µM; Ratio IC50 [4]: 0.7; IC50 (Leishmania major [5]): > 10 µM; IC50 (Leishmania donovani [8]): > 10 µM; IC50 (Leishmania donovani [9]): > 10 µM; IC50 at 48 h (in vitro [10]; Vero cells): > 100 µM; IC50 at 48 h (in vitro [16]; THP-1 cells): 38.5 µM; selectivity ratio (in vitro [12]): 119

Question: For CCCCCc1cn(CCCN2C(=O)CN(/N=C/c3ccc([N+](=O)[O-])o3)C2=O)nn1, which IC50 at 48 h [14] is on record?
Answer: 35.6 µM

Question: What about the IC50 (Leishmania donovani [1]) of the same molecule?
Answer: > 10 µM

Question: And the IC50 (Leishmania major [2])?
Answer: 0.55 µM

Question: And the selectivity ratio [15]?
Answer: 74

Question: And the IC50 (Leishmania major [3])?
Answer: 0.61 µM

Question: And the “Ratio IC50” value [4]?
Answer: 0.8

Question: And the IC50 (Leishmania major [5])?
Answer: > 10 µM

Question: And the IC50 (Leishmania donovani [8])?
Answer: > 10 µM

Question: What about the IC50 (Leishmania donovani [9]) of the same molecule?
Answer: > 10 µM

Question: And the IC50 at 48 h (in vitro [10]; Vero cells)?
Answer: > 100 µM

Question: What about the IC50 at 48 h (in vitro [16]; THP-1 cells) of the same molecule?
Answer: 50.6 µM

Question: And the selectivity ratio (in vitro [12])?
Answer: 164

Question: What does the source list for CCCCc1cn(CCCN2C(=O)CN(/N=C/c3ccc([N+](=O)[O-])o3)C2=O)nn1?
Answer: IC50 at 48 h [14]: 43.9 µM; selectivity ratio [17]: 99; IC50 (Leishmania donovani [1]): 1.01 µM; IC50 (Leishmania major [2]): 0.45 µM; selectivity ratio [15]: 98; IC50 (Leishmania major [3]): 3.34 µM; Ratio IC50 [4]: 0.2; IC50 (Leishmania major [5]): > 10 µM; IC50 (Leishmania donovani [8]): > 10 µM; IC50 (Leishmania donovani [9]): > 10 µM; IC50 at 48 h (in vitro [10]; Vero cells): > 100 µM; IC50 at 48 h (in vitro [16]; THP-1 cells): 52.5 µM; selectivity ratio (in vitro [12]): 30

Question: For O=C1CN(/N=C/c2ccc([N+](=O)[O-])o2)C(=O)N1CCCn1cc(CSc2ccccc2)nn1, which IC50 at 48 h [14] is on record?
Answer: 37.4 µM

Question: What about the IC50 (Leishmania donovani [1]) of the same molecule?
Answer: > 10 µM

Question: And the IC50 (Leishmania major [2])?
Answer: 0.67 µM

Question: What about the selectivity ratio [15] of the same molecule?
Answer: 56

Question: What about the IC50 (Leishmania major [3]) of the same molecule?
Answer: > 10 µM

Question: What about the IC50 (Leishmania major [5]) of the same molecule?
Answer: 3.98 µM

Question: And the selectivity ratio [6]?
Answer: 1

Question: And the “Ratio IC50” value [7]?
Answer: 0.2

Question: What about the IC50 (Leishmania donovani [8]) of the same molecule?
Answer: > 10 µM

Question: And the IC50 (Leishmania donovani [9])?
Answer: 9.9 µM

Question: And the IC50 at 48 h (in vitro [10]; Vero cells)?
Answer: 3.86 µM

Question: What about the IC50 at 48 h (in vitro [16]; THP-1 cells) of the same molecule?
Answer: 6.65 µM

Question: What does the source list for CCCCc1cn(CCCCCN2C(=O)CN(/N=C/c3ccc([N+](=O)[O-])o3)C2=O)nn1?
Answer: IC50 at 48 h [14]: > 100 µM; IC50 (Leishmania donovani [1]): > 10 µM; IC50 (Leishmania major [2]): 0.44 µM; selectivity ratio [15]: > 227; IC50 (Leishmania major [3]): > 10 µM; IC50 (Leishmania major [5]): 5.69 µM; selectivity ratio [6]: 6; Ratio IC50 [7]: 0.1; IC50 (Leishmania donovani [8]): > 10 µM; IC50 (Leishmania donovani [9]): 1.68 µM; IC50 at 48 h (in vitro [10]; Vero cells): 31.6 µM; IC50 at 48 h (in vitro [16]; THP-1 cells): > 100 µM; selectivity ratio (in vitro [13]; Vero cells): 19

Question: For O=C1OCCN1/N=C/c1ccc([N+](=O)[O-])o1 [FURAZOLIDONE], which “Ratio IC50” value [18] is on record?
Answer: 0.1

Question: What about the IC50 (Leishmania donovani [1]) of the same molecule?
Answer: 4.94 µM

Question: What about the IC50 (Leishmania major [3]) of the same molecule?
Answer: 5.75 µM

Question: And the “Ratio IC50” value [4]?
Answer: 0.1

Question: And the IC50 (Leishmania major [5])?
Answer: > 10 µM

Question: What about the IC50 (Leishmania donovani [9]) of the same molecule?
Answer: 1.68 µM

Question: What about the “Ratio IC50” value [19] of the same molecule?
Answer: 0.2

Question: And the IC50 at 48 h (in vitro [10]; vero)?
Answer: > 100 µM

Question: And the IC50 at 48 h (in vitro [16]; THP-1 cells)?
Answer: > 100 µM

Question: What about the selectivity ratio (in vitro [11]) of the same molecule?
Answer: 270

Question: And the selectivity ratio (in vitro [12])?
Answer: 17

Question: What about the selectivity ratio (in vitro [20]) of the same molecule?
Answer: 357

Question: What about the selectivity ratio (in vitro [13]; Vero cells) of the same molecule?
Answer: 60

Question: With O=C1CN(/N=C/c2ccc([N+](=O)[O-])o2)C(=O)N1 [NITROFURANTOIN] as the molecule, how does the IC50 (Leishmania donovani [1]) read?
Answer: > 10 µM

Question: And the IC50 (Leishmania major [2])?
Answer: > 10 µM

Question: What about the IC50 (Leishmania major [3]) of the same molecule?
Answer: > 10 µM

Question: What about the IC50 (Leishmania major [5]) of the same molecule?
Answer: > 10 µM

Question: What about the IC50 (Leishmania donovani [8]) of the same molecule?
Answer: > 10 µM

Question: And the IC50 (Leishmania donovani [9])?
Answer: 3.57 µM

Question: And the IC50 at 48 h (in vitro [10]; vero)?
Answer: > 100 µM

Question: And the IC50 at 48 h (in vitro [16]; thp-1)?
Answer: > 100 µM

Question: And the selectivity ratio (in vitro [13])?
Answer: 28

Question: For NC(=O)N/N=C/c1ccc([N+](=O)[O-])o1 [NITROFURAZONE], which “Ratio IC50” value [18] is on record?
Answer: 0.2

Question: And the IC50 (Leishmania donovani [1])?
Answer: 4.11 µM

Question: What about the IC50 (Leishmania major [3]) of the same molecule?
Answer: 2.8 µM

Question: What about the “Ratio IC50” value [4] of the same molecule?
Answer: 0.12

Question: And the IC50 (Leishmania major [5])?
Answer: 5.6 µM

Question: What about the “Ratio IC50” value [7] of the same molecule?
Answer: 0.1

Question: And the IC50 (Leishmania donovani [9])?
Answer: 2.7 µM

Question: And the “Ratio IC50” value [19]?
Answer: 0.3

Question: And the IC50 at 48 h (in vitro [10]; Vero cells)?
Answer: > 100 µM

Question: And the IC50 at 48 h (in vitro [16]; THP-1 cells)?
Answer: > 100 µM

Question: What about the selectivity ratio (in vitro [11]) of the same molecule?
Answer: 54

Question: What about the selectivity ratio (in vitro [12]) of the same molecule?
Answer: 36

Question: And the selectivity ratio (in vitro [20])?
Answer: 54

Question: And the selectivity ratio (in vitro [13]; Vero cells)?
Answer: 37
